Test results: patent publication US20140309244A1, “NOVEL MICROBIOCIDES” (SYNGENTA PARTICIPATIONS AG, priority 2010, published 2014)

How the values were obtained:
Pyrenophora teres = Pyrenophora teres / barley / leaf disc preventative (net blotch); assay type: in vivo; conditions: foliar, barley cv Hasso leaf segments, inoculated two days after application, assessed 5-7 days after application, read-out: control of Pyrenophora teres (disease control compared to untreated)
[1] = system: Thanatephorus cucumeris (Rhizoctonia solani); assay: Thanatephorus cucumeris (Rhizoctonia solani) / liquid culture (foot rot, damping-off); assay type: cell-based; conditions: liquid culture of mycelia fragments, PDB potato dextrose broth, 96-well plate, 24° C., 3-4 days after application, read-out: control of Thanatephorus cucumeris (inhibition of growth, photometric)
Protocol: Thanatephorus cucumeris (Rhizoctonia solani)/Liquid Culture (Foot Rot, Damping-Off): Mycelia fragments of a newly grown liquid culture of the fungus are directly mixed into nutrient broth (PDB potato dextrose broth). After placing a DMSO solution of the test compounds into a 96-well microtiter plate at an application rate of 200 ppm, the nutrient broth containing the fungal material was added. The test plates were incubated at 24° C. and the inhibition of growth was determined photometrically 3-4 days after application.

[2] = system: Phaeosphaeria nodorum (Septoria nodorum); assay: Phaeosphaeria nodorum (Septoria nodorum) / wheat / leaf disc preventative (glume blotch); assay type: in vivo; conditions: Parastagonospora nodorum, foliar, wheat cv Kanzler leaf segments, inoculated 2 days after application, assessed 5-7 days after application, read-out: control of Phaeosphaeria nodorum (percent disease control compared to untreated)
[3] = system: Blumeria graminis f. sp. tritici (Erysiphe graminis f. sp. tritici); assay: Blumeria graminis f. sp. tritici (Erysiphe graminis f. sp. tritici) / wheat / leaf disc preventative (powdery mildew on wheat); assay type: in vivo; conditions: foliar, wheat cv. Kanzler leaf segments, inoculated 1 day after application, assessed 6-8 days after application, read-out: control of Blumeria graminis (percent disease control compared to untreated)
[4] = system: Puccinia recondita f. sp. tritici; assay: Puccinia recondita f. sp. tritici / wheat / leaf disc preventative (brown rust); assay type: in vivo; conditions: foliar, wheat cv Kanzler leaf segments, inoculated 1 day after application, assessed 7-9 days after application, read-out: control of Puccinia recondita f. sp. tritici (percent disease control compared to untreated)
Protocol: Puccinia recondita f. sp. tritici/Wheat/Leaf Disc Preventative (Brown Rust) Wheat leaf segments cultivated variety (cv) Kanzler were placed on agar in 24-well plates and sprayed with formulated test compound diluted in water at an application rate of 200 ppm. The leaf disks were inoculated with a spore suspension of the fungus 1 day after application. The inoculated leaf segments were incubated at 19° C. and 75% relative humidity under a light regime of 12/12 h (light/dark) in a climate cabinet and the activity of a compound was assessed as percent disease control compared to untreated when an appropriate level of disease damage appears in untreated check leaf segments (7-9 days after application). […].103

[5] = system: Botryotinia fuckeliana (Botrytis cinerea); assay: Botryotinia fuckeliana (Botrytis cinerea) / liquid culture (gray mould); assay type: cell-based; conditions: Vogels broth, 96-well plate, 24° C., 3-4 days after application, read-out: control of Botryotinia fuckeliana (inhibition of growth, photometric)
[6] = system: Mycosphaerella graminicola (Septoria tritici); assay: Mycosphaerella graminicola (Septoria tritici) / liquid culture (Septoria blotch); assay type: cell-based; conditions: Zymoseptoria tritici, PDB potato dextrose broth, 96-well plate, 24° C., 4-5 days after application, read-out: control of Mycosphaerella graminicola (inhibition of growth, photometric)
Gaeumannomyces graminis = Gaeumannomyces graminis / liquid culture (take-all of cereals); assay type: cell-based; conditions: liquid culture of mycelial fragments, PDB potato dextrose broth, 96-well plate, 24° C., 4-5 days after application, read-out: control of Gaeumannomyces graminis (inhibition of growth, photometric)
[7] = system: Monographella nivalis (Microdochium nivale); assay: Monographella nivalis (Microdochium nivale) / liquid culture (foot rot cereals); assay type: cell-based; conditions: PDB potato dextrose broth, 96-well plate, 24° C., 4-5 days after application, read-out: control of Monographella nivalis (inhibition of growth, photometric)
How it was run: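 Cryostored conidia in potato dextrose broth added to test compound in DMSO at 200 ppm. Incubated at 24° C; growth inhibition read photometrically 4-5 days after application.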

[8] = system: Glomerella lagenarium (Colletotrichum lagenarium); assay: Glomerella lagenarium (Colletotrichum lagenarium) / liquid culture (anthracnose); assay type: cell-based; conditions: Colletotrichum orbiculare, PDB potato dextrose broth, 96-well plate, 24° C., 3-4 days after application, read-out: control of Glomerella lagenarium (inhibition of growth, photometric)
[9] = system: Mycosphaerella arachidis (Cercospora arachidicola); assay: Mycosphaerella arachidis (Cercospora arachidicola) / liquid culture (early leaf spot); assay type: cell-based; conditions: PDB potato dextrose broth, 96-well plate, 24° C., 4-5 days after application, read-out: control of Mycosphaerella arachidis (inhibition of growth, photometric)
[10] = system: Magnaporthe grisea (Pyricularia oryzae); assay: whole plant or invertebrate; assay type: in vivo; conditions: foliar, read-out: control of Magnaporthe grisea (percent disease control compared to untreated)
[11] = system: Puccinia recondita f. sp. tritici; assay: Puccinia recondita f. sp. tritici / wheat / leaf disc curative (brown rust); assay type: in vivo; conditions: foliar, wheat cv Kanzler leaf segments, applied 1 day after inoculation, assessed 6-8 days after application, read-out: control of Puccinia recondita f. sp. tritici (percent disease control compared to untreated)
Protocol: Puccinia recondita f. sp. tritici/Wheat/Leaf Disc Curative (Brown Rust): Wheat leaf segments cv Kanzler were placed on agar in 24-well plates. The leaf segments were inoculated with a spore suspension of the fungus. The plates were stored in darkness at 19° C. and 75% relative humidity. The formulated test compound diluted in water was applied at an application rate of 200 ppm 1 day after inoculation.

CO/N=C(\C)c1cccc(CCCO/N=C2\CCCc3cc4c(nc32)CCCC4)n1 [P.94]
≥ 80%: pest or weed control at 200 ppm (Pyrenophora teres) | inhibition at 200 ppm [1] | pest or weed control at 200 ppm [2] | pest or weed control at 200 ppm [3] | pest or weed control at 200 ppm [4] | inhibition at 200 ppm [5] | inhibition at 200 ppm [6] | inhibition at 200 ppm (Gaeumannomyces graminis) | inhibition at 200 ppm [7] | inhibition at 200 ppm [8] | inhibition at 200 ppm [9] | pest or weed control at 200 ppm [10] | pest or weed control at 200 ppm [11]

CO/N=C(\C)c1cccc(CCCO/N=C2\CCCc3cc4ccccc4nc32)n1 [P.100]
≥ 80%: pest or weed control at 200 ppm (Pyrenophora teres) | inhibition at 200 ppm [1] | pest or weed control at 200 ppm [2] | pest or weed control at 200 ppm [3] | pest or weed control at 200 ppm [4] | inhibition at 200 ppm [5] | inhibition at 200 ppm [6] | inhibition at 200 ppm (Gaeumannomyces graminis) | inhibition at 200 ppm [7] | inhibition at 200 ppm [8] | inhibition at 200 ppm [9] | pest or weed control at 200 ppm [10] | pest or weed control at 200 ppm [11]
